Calls of active or inactive are those of the source. The rule behind the calls is not given here.
Assays:
[1] = molecular target: T1, Glucose-6-phosphate 1-dehydrogenase (Trypanosoma brucei, UniProt Q9GRG7); assay: Inhibition of Trypanosoma brucei G6PDH using NADP as substrate by Lineweaver-Burke plot
T1 sequence (Q9GRG7 whole entry): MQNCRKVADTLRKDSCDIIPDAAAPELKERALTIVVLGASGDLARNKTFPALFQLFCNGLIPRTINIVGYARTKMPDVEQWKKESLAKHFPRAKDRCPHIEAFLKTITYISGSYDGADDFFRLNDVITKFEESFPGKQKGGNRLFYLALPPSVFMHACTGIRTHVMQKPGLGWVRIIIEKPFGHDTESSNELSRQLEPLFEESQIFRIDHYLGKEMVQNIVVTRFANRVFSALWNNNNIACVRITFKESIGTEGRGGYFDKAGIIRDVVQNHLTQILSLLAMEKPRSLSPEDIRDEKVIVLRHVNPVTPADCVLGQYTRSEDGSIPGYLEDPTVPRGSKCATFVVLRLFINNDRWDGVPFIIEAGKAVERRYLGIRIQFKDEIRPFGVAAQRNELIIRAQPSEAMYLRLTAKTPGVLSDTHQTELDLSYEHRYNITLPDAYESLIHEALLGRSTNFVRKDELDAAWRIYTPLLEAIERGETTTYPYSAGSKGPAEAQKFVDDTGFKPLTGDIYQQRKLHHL

[2] = test system: Leishmania mexicana; assay: Antileishmanial activity against Leishmania mexicana early-metacyclic promastigotes up to 96 uM after 48 hrs by MTS assay; type: functional, organism-based
[3] = test system: Trypanosoma brucei; assay: Trypanocidal activity against Trypanosoma brucei 427 bloodstream form after 48 hrs by MTS assay; type: functional; conditions: Trypanosoma brucei, 427, 48 h; read-out: LD50 (the source's name)
[4] = molecular target: T2, Glucose-6-phosphate 1-dehydrogenase (Homo sapiens, UniProt P11413); assay: Inhibition of human G6PDH using glucose-6-phosphate as substrate by Lineweaver-Burke plot
[5] = molecular target: T1, Glucose-6-phosphate 1-dehydrogenase; assay: Inhibition of Trypanosoma brucei G6PDH using glucose-6-phosphate as substrate by Lineweaver-Burke plot
[6] = molecular target: T2, Glucose-6-phosphate 1-dehydrogenase; assay: Inhibition of human G6PDH using NADP as substrate by Lineweaver-Burke plot

T2 sequence (P11413 whole entry): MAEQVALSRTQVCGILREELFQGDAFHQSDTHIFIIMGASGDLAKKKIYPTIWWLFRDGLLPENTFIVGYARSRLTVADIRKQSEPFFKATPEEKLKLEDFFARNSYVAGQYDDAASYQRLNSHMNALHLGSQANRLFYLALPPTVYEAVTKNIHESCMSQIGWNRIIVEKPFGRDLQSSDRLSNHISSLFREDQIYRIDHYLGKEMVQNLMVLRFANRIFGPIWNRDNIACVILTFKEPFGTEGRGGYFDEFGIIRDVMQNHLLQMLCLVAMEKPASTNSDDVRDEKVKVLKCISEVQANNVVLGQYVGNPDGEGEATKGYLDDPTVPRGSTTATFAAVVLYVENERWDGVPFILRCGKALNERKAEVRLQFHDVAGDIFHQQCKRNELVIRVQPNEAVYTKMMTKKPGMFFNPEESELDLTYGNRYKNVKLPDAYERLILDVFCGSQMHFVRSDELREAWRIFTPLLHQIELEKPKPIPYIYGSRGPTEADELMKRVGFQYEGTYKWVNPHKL

SMILES	Ki [1]	Activity [2]	LC50 [3]	Ki [4]	Ki [5]	Ki [6]
C[C@]12CC[C@H](O)C[C@@H]1CC[C@@H]1[C@@H]2CC[C@]2(C)C(=O)CC[C@@H]12 [EPIANDROSTERONE]	0.46 µM	inactive	24.5 µM	3.4 µM	0.49 µM	3 µM
C[C@]12CC[C@H](O)CC1=CC[C@@H]1[C@@H]2CC[C@]2(C)C(=O)CC[C@@H]12 [PRASTERONE]	1.1 µM	inactive	43.8 µM	8.9 µM	1.7 µM	6.2 µM

From ChEMBL document CHEMBL1152774, “Inhibition of Trypanosoma brucei glucose-6-phosphate dehydrogenase by human steroids and their effects on the viability of cultured parasites” (Bioorg Med Chem, 2009)
